Data on 1 compound can be found in patent publication US20080227688A1, “Inhibition of viral replication” (priority 2007, published 2008).

The test has as its system reovirus. It counts as cell-based, Dearing strain of reovirus serotype 3.

SMILES strings stand for the structures.

`C[C@H](NC(=O)[C@H](Cc1ccccc1)NC(=O)OCc1ccccc1)C(=O)CF` [Z-FA-FMK, N-benzyloxycarbonyl-Phe-Ala-fluoromethylketone]: the “cure of persistent reovirus infection (western blot, reovirus antiserum)” value is “cured persistently infected cells”.
